Results on 16 compounds are retold here after patent US20250346613A1, “BORIC ACID PROTEASOME INHIBITOR AND USE THEREOF” (ARTIVILA BIOPHARMA, priority 2022, published 2025).

Holding throughout (assay type): cell-based
For assay [1], the target named is T1, β5c subunit of the 20S proteasome (Homo sapiens, UniProt P20618+P28074).
T1 construct: The proteasome tested in the present disclosure was derived from Raji cells; endogenous in cells; host or cells: Raji cells
In words: Proteasome inhibitory activity, β5c subunit (Raji cells treated with compound, lysed, Suc-LLVY-AMC substrate). The note with it: proteasome from Raji cells incubated with compound 4 h. The text has this:
(§1) In the present disclosure, the fluorescent peptide substrate Ac-Ala-Asn-Trp-AMC (abbreviated as Ac-ANW-AMC) and the […] kit containing a fluorescent peptide substrate Suc-Leu-Leu-Val-Tyr-AMC (abbreviated as Suc-LLVY-AMC) (Promega, Item No. G8660) were used to detect the activities of the β5i subunit and β5c subunit of the 20S proteasome, respectively.
(§2) The proteasome tested in the present disclosure was derived from Raji cells, the fluorescent substrate Ac-ANW-AMC was purchased from Roche company, and other reagents were purchased from Sigma company. The experimental system was divided into two parts of cell lysis system and enzyme reaction system. […] The starting concentration of the compound (inhibitor) was 1 μM. It was diluted in a 3-fold serial dilution to a total of 8 concentrations, that is, the administration concentration can be 1 μM, 0.333 μM, 0.111 μM . . . , respectively, and the specific experimental process was described below.
(§3) Raji cells (1×10^6 cells) cryopreserved in liquid nitrogen were thawed rapidly in a water bath at 37° C. The cell pellet was transferred to a 15 mL centrifuge tube, added with 9 mL of fresh medium (Gibco RPMI1640 added with 10% fetal bovine serum and 1% double antibiotics), centrifuged at 120 g for 5 min, inoculated to 25 mL cell culture flasks, and passaged once every 2-3 days.
(§4) The compound was weighed and dissolved in DMSO to a concentration of 10 mM. The compound was then sequentially diluted to concentrations of 200 μM, 66.67 μM, 22.22 μM, 7.41 μM, 2.47 μM, 0.82 μM, 0.27 μM, and 0.091 μM with fresh medium. Raji cells in a good growth status were inoculated into a 48-well cell culture plate at 7×10^5 cells/mL.
(§5) Raji cells in a good growth status were taken and counted. They were then inoculated to a 48-well cell culture plate at 7×10^5 cells/mL. Each 5 μL of the various concentrations of diluted compounds above were taken and added to the culture plate inoculated with cells, and the lowest concentration of compound was 0 μM. The drug bortezomib (Velcade) and ONX-0914 were used as the positive control compounds. All cells were incubated at 37° C. for 4 h.
(§6) The compound-treated cells were sequentially transferred into 1.5 mL centrifuge tubes, centrifuged at 10000 rpm for 2 min, and the supernatants were removed. The cell pellet was resuspended in 1 mL of PBS, centrifuged at 10000 rpm for 2 min, and the supernatant was removed. Cells were resuspended by adding 100 μL of cell lysate (50 mM Tris of pH 7.5, 150 mM NaCl, 5 mM MgCl2, 5 mM ATP, 1 mM DTT, 0.01% NP-40, 1 mM Digitonin, and Cocktail), placed in an ice bath for 30 min, and centrifuged at 13000 rpm for 10 min.
(§7) 2 mg of fluorescent peptide substrate AC-ANW-AMC was dissolved in 424.7 μL of DMSO to obtain an 8 mM stock solution, and stored at −20° C. The stock solution was diluted 100-fold to a final concentration of […] for use in the reaction system. The fluorescent peptide substrate Suc-LLVY-AMC was prepared according to the instructions of the Promega kit.
(§8) Each 20 μL of the prepared proteasome solution above was added to a 96-well white luciferase microplate and added with 25 μL of AC-ANW-AM substrate buffer solution (50 mM Tris of pH 7.5, 150 mM NaCl, 5 mM MgCl2, 5 mM ATP, 80 uM Ac-ANW-AMC and 1 mM DTT) and 25 μL of Suc-LLVY-AMC substrate buffer solution for 10 min of reaction at 37° C. in the dark. Fluorescence values were read at 345 nm/445 nm by using a fluorence microplate reader.
(§9) The data were exported and the inhibition rate in percentage was calculated according to the following formula: Inhibition rate=(maximum signal value-compound signal value)/(maximum signal value−blank signal value)×100%.
(§10) Where the maximum signal was obtained from cell lysates treated with DMSO only, and the blank signal was obtained from wells containing only lysates.

Assay [2] deals with T2, β5i subunit of the 20S proteasome (Homo sapiens, UniProt P20618+P28062).
T2 construct: The proteasome tested in the present disclosure was derived from Raji cells; endogenous in cells; host or cells: Raji cells
In words: Proteasome inhibitory activity, β5i subunit (Raji cells treated with compound, lysed, Ac-ANW-AMC substrate). The note with it: proteasome from Raji cells incubated with compound 4 h.
Source text: as §1, §2, §3, §4, §5, §6, §7, §8, §9, §10

In another assay the test system is MM.1S cell strain. In words: Inhibitory activity of cell strain (CellTiter-Glo). The note with it: Homo sapiens, MM1.S, 72 h incubation. The method, then:
The cells used in this experiment were MM.1S cell strain and the detection reagent was CellTiter-Glo (Promega). […] The experimental process was described below. MM.1S cells in the logarithmic growth phase and in a good status were digested into individual cells by trypsin, centrifuged to remove the supernatant, and counted. Cells were diluted and 100 μL of cell suspension per well was added to a 96-well enzyme-coated plate at 1×10^5 cells per well. The wells containing only RPMI1640 complete medium were set as blank control. The 96-well plate was transferred to a 37° C. incubator containing 5% CO2 for 24 h of incubation.
The compound was accurately weighed and dissolved in DMSO to a concentration of 10^−2 M. 10 μL of compound was pipetted to 190 μL of DMSO to given a 5×10^−4 M compound. 6 μL of the compound (5×10^−5 M) was pipetted to a new 96-well microplate containing 194 μL of RPMI1640 complete medium and diluted in a 3-fold gradient dilution. 50 μL of the diluted compound was transferred to the 96-well microplate containing the cells such that the final compound concentrations were 5×10^−7 M, 1.67×10^−7 M, 5.55×10^−8 M, 1.85×10^−8 M, 6.17×10^−9 M, 2.06×10^−9 M, 6.86×10^−10 M, 2.29×10^−10 M, and 0 M. For the 0 M, no compound was added, and the same concentration of DMSO was added. The marketed drug bortezomib was used as a positive control. The 96-well microplate added with compounds was placed in the 37° C. incubator for 72 h of incubation.
At the predetermined detection time, the 96-well microplate to be detected was placed at room temperature, added with 40 μL of detection reagent (CellTiter-Glo) per well, and covered with a dark lid or piece of aluminium foil. The contents were mixed on an orbit oscillator for 10 min for complete cell lysis, with a vibration speed of 150 rpm. Luminescence values were detected on a multifunctional microplate reader (BioTek Synergy H1 Hybrid Multi-Mode Reade).
The data were exported and the percentage inhibition was calculated according to the following formula: Inhibition rate=(maximum signal value-compound signal value)/(maximum signal value−blank signal value)×100%, • wherein maximum signal was obtained from alone DMSO-treated cells, and blank signal was obtained from wells containing only culture medium.
For orientation: ATP-based viability assays read luminescence as a measure of living cells.

Broadly, the IC50 is the midpoint of a concentration-inhibition curve. As to `O=C(CC(=O)N[C@@H](Cc1ccccc1)B(O)O)NCc1cccc(-c2ccccc2)c1` [Example 44, (R)-(1-(3-(([1,1′-biphenyl]-3-ylmethyl)amino)-3-oxopropionamido)-2-phenylethyl)boronic acid], the IC50 (in assay [1]; in assay [2]; with MM.1S cell strain) was not above 50 nM in each case.

Turning to `Cc1ccc(C[C@H](NC(=O)C(C)C(=O)NCc2cccc(-c3ccccc3)n2)B(O)O)cc1` (stereo partly drawn) [Example 45, ((1R)-1-(2-methyl-3-oxo-3-(((6-phenylpyridin-2-yl)methyl)amino)propionamide)-2-(p-tolyl)ethyl)boric acid], the half-maximal inhibitory concentration (IC50) (in assay [1]; in assay [2]; with MM.1S cell strain) was not above 50 nM throughout.

As to `COc1cccc(CNC(=O)CC(=O)N[C@@H](Cc2coc3ccccc23)B(O)O)c1` [Example 46, (R)-(2-(benzofuran-3-yl)-1-(3-((3-methoxybenzyl)amino)-3-oxopropionamido)ethyl)boric acid], the IC50 (in assay [1]; in assay [2]; in the assay with MM.1S cell strain) was not above 50 nM throughout.

Regarding `CC(C(=O)Nc1ccccc1)C(=O)N[C@@H](Cc1ccccc1)B(O)O` (stereo partly drawn) [Example 47, ((1R)-1-(2-methyl-3-oxo-3-(phenylamino)propionylamino)-2-phenylethyl)boronic acid], the values for the IC50 (in assay [1]; in assay [2]; in the assay with MM.1S cell strain) were 50 to 200 nM, not above 50 nM and 200 to 500 nM, respectively.

On to `COc1cccc(CNC(=O)CC(=O)N[C@@H](CC(C)C)B(O)O)c1` [Example 48, (R)-(1-(3-((3-methoxybenzyl)amino)-3-oxopropionamido)-3-methylbutyl)boric acid], for which the IC50 (in assay [1]; in assay [2]; in the assay on MM.1S cell strain) was not above 50 nM throughout.

On to `COc1cccc(CNC(=O)CC(=O)N[C@@H](Cc2ccccc2)B(O)O)c1` [Example 49, (R)-(1-(3-((3-methoxybenzyl)amino)-3-oxopropionylamino)-2-phenylethyl)boric acid], for which the IC50 (in assay [1]; in assay [2]; with MM.1S cell strain) was not above 50 nM in each case.

Regarding `COc1cccc(CNC(=O)CC(=O)N[C@@H](Cc2ccc(C)cc2)B(O)O)c1` [Example 50, (R)-(1-(3-((3-methoxybenzyl)amino)-3-oxopropionylamino)-2-(p-tolyl)ethyl)boric acid], the IC50 (in assay [1]; in assay [2]; in the assay with MM.1S cell strain) was not above 50 nM throughout.

`Cc1ccc(C[C@H](NC(=O)C(C)(F)C(=O)NCc2cccc(-c3ccccc3)n2)B(O)O)cc1` (stereo partly drawn) [Example 56, ((1R)-1-(2-fluoro-2-methyl-3-oxo-3-(((6-phenylpyridin-2-yl)methyl)amino)propionylamino)-2-(p-tolyl)ethyl)boric acid]: the IC50 in assay [1] is not above 50 nM; in assay [2], not above 50 nM; in the assay with MM.1S cell strain it was 50 to 200 nM.

In the case of `CC(C(=O)NCc1cccc(-c2ccccc2)n1)C(=O)N[C@@H](Cc1coc2ccccc12)B(O)O` (stereo partly drawn) [Example 57, ((1R)-2-(benzofuran-3-yl)-1-(2-methyl-3-oxo-3-(((6-phenylpyridin-2-yl)methyl)amino)propionamido)ethyl)boric acid], the IC50 (in assay [1]; in assay [2]; with MM.1S cell strain) was not above 50 nM in each case.

Consider `CC(C(=O)NCc1cccc(-c2ccccc2)n1)C(=O)N[C@@H](Cc1ccc(-c2ccccc2)cc1)B(O)O` (stereo partly drawn) [Example 58], for which the half-inhibitory concentration (IC50) is not above 50 nM in assay [1], not above 50 nM in assay [2] and 50 to 200 nM with MM.1S cell strain.

As for `CC(C(=O)NCc1ccc(Cl)cc1Cl)C(=O)N[C@@H](Cc1coc2ccccc12)B(O)O` (stereo partly drawn) [Example 60, ((1R)-2-(benzofuran-3-yl)-1-(3-((2,4-dichlorobenzyl)amino)-2-methyl-3-oxopropionamido)ethyl) boric acid], the 50% inhibitory concentration (IC50) (in assay [1]; in assay [2]; in the assay on MM.1S cell strain) was not above 50 nM throughout.

In the case of `COc1cccc(CCNC(=O)C(C)C(=O)N[C@@H](Cc2ccc(C)cc2)B(O)O)c1` (stereo partly drawn) [Example 62, ((1R)-1-(3-((3-methoxyphenylethyl)amino)-2-methyl-3-oxopropionamido)-2-(p-tolyl)ethyl)boric acid], the IC50 (in assay [1]; in assay [2]; with MM.1S cell strain) was not above 50 nM in each case.

For `COc1cccc(CCNC(=O)C(C)C(=O)N[C@@H](Cc2ccc(-c3ccccc3)cc2)B(O)O)c1` (stereo partly drawn) [Example 64, ((1R)-2-([1,1′-biphenyl]-4-yl)-1-(3-((3-methoxyphenylethyl)amino)-2-methyl-3-oxopropionamido)ethyl)boric acid], the IC50 (in assay [1]; in assay [2]; with MM.1S cell strain) was not above 50 nM throughout.

Regarding `COc1cccc(CNC(=O)C(Cc2ccccc2)C(=O)N[C@@H](Cc2ccc(C)cc2)B(O)O)c1` (stereo partly drawn) [Example 65, ((1R)-1-(2-benzyl-3-((3-methoxybenzyl)amino)-3-oxopropionamido)-2-(p-tolyl)ethyl)boric acid], the IC50 (in assay [1]; in assay [2]; in the assay on MM.1S cell strain) was not above 50 nM in each case.

For the compound `COc1cccc(CNC(=O)C(Cc2ccccc2)C(=O)N[C@@H](CC(C)C)B(O)O)c1` (stereo partly drawn) [Example 66, ((1R)-1-(2-benzyl-3-((3-methoxybenzyl)amino)-3-oxopropionamido)-3-methylbutyl)boronic acid], the IC50 (in assay [1]; in assay [2]; in the assay on MM.1S cell strain) was not above 50 nM in each case.

Regarding `CC(C(=O)NCc1cccc(OC(F)(F)F)c1)C(=O)N[C@@H](Cc1coc2ccccc12)B(O)O` (stereo partly drawn) [Example 73, ((1R)-2-(benzofuran-3-yl)-1-(2-methyl-3-oxo-3-((3-(trifluoromethoxy)benzyl)amino)propionamido)ethyl)boric acid], the IC50 (in assay [1]; in assay [2]; in the assay on MM.1S cell strain) was not above 50 nM each time.
